Measurements as given in US20150018369A1 (priority 2012, published 2015).
Read-outs that look alike come from different tables or passages of the source.

What was measured:
T98 g cells = test: Cell viability assay (WST-1), SAR of AI compounds at inducing cell death; type: cell-based, human
Description: (§1) Cells were plated media supplemented with 10% serum in 96-well plates (10^4 cells per wellI; 0.1 ml per well). Once they reached ˜70% confluence, they were rinsed with PBS and kept for an additional 24 his in media supplemented with 1% serum, at which time drugs or vehicle (DMSO, 0.1%, prepared in 10 μl serum-free media) were directly added to each well. After 3 days, cell viability was assessed using the Cell Proliferation Reagent WST-1 (Roche, Indianapolis, Ind.). Briefly, WST-1 reagent (10 μl) was added to each well for 3 hrs at 37° C. with 5% CO2 and WST-1 products were read at 450 nm using Packard SpectraCount™.
Because the strongest toxic effect of WIN55212-2 (ST-1) was measured in T98 g cells, these cells are used as readout to study the structure activity relationship (SAR) of AI compounds at inducing cell death. Table 2 provides the chemical structure, potency and efficacy of several AI compounds.

AI receptors = test: GTPγS binding in HEK293 cell homogenates; type: biochemical, human
Source text: When comparing the overall amino acid sequence of GPR124 to that of CB1 and CB2 receptors no significant homology was found. However, when focusing the comparison to the amino acid sequence encoding for the third transmembrane domains of GPR124 and CB2 receptors, 84% homology was found (FIG. 5a). […] Therefore, it is likely that ST-1, ST-11, and other AI compounds interact directly with the third transmembrane domain of GPR124. To determine the signaling mechanism of AI receptors, effect of ST-11 in HEX293 cells, which express GPR124 endogenously and commonly used to study GPCR pharmacology and signaling pathway, was tested.

CB2 = CB2 (Homo sapiens, UniProt P34972); test: HA-tagged receptor internalization, CB2; type: cell-based; set-up: HA; expressed in transfected cells; conditions: FIG. 2b
Source text: (§2) FIGS. 2d and 2e illustrate the co-docking of CP55940 and either WIN55212-2 (d) or ST-11 (e) in hCB1 receptors.

human CB1 receptors = target: T1, human CB1 receptors (Homo sapiens, UniProt P21554); test: HA-tagged receptor internalization, CB1; type: cell-based; conditions: FIG. 2a
T1 construct: HA; expressed in transfected cells
Source text: as §2

[1] = tested on: T98 g, MDA231 and sknmc cells; test: Killing of cell lines lacking CB1/CB2 (sensitivity profile); type: cell-based, human; conditions: for potencies and efficacies at killing these cells: T98 g, MDA231 and sknmc cells
Description: as §1
Based on this evidence, it was determined if WIN55212-2 differentially kills T98 g, MDA231 and […] cells, thus providing an index of AI receptor functionality in these cells. Also tested is Δ^9-THC (classic cannabinoid) and CP55940 (non-classical cannabinoid).

[2] = tested on: protein expressed by NG108-15 cells; conditions: cited from earlier work
[3] = tested on: hippocampal slices from CB1-/- mice; conditions: blocked by capsazepine; cited from earlier work
[4] = tested on: homogenates from CB1-/- mice cerebellum; conditions: insensitive to SR144528; cited from earlier work
[5] = Homo sapiens, T98G, 72 h, T98 g cells, cell death, viability after 3 days, read-out: EC50
[6] = T98 g cells, cell death, viability after 3 days

T1 sequence (P21554 whole entry): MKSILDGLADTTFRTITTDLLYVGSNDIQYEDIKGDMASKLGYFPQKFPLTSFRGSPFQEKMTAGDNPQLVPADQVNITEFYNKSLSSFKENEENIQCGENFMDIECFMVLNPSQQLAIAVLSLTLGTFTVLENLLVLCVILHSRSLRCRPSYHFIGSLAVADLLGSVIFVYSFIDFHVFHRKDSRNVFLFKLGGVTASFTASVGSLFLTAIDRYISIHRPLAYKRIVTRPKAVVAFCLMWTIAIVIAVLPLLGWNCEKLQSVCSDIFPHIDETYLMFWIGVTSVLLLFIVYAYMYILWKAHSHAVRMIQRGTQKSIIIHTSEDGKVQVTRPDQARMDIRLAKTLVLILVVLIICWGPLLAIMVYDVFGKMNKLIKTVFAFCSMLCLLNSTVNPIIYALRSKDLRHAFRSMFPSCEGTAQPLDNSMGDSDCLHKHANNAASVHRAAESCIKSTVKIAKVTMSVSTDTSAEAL
CB2, sequence (P34972 whole entry): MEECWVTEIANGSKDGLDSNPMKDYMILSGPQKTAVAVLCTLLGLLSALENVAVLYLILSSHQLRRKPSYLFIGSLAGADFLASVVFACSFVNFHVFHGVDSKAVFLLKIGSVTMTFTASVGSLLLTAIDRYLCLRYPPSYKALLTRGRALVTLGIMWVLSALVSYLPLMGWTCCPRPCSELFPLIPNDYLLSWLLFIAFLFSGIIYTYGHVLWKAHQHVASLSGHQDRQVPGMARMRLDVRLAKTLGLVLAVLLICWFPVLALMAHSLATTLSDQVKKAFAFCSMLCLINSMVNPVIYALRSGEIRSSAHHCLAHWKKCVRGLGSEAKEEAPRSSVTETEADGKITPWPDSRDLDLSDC

## CCn1c2ccccc2c2cc(C(=O)c3ccc(C)cc3)ccc21 [ST-63, (9-ethyl-carbazol-3-yl)(p-methylphenyl)methanone]
T98 g cells; [5]
  EC50: 0.715 µM

## CCCn1cc(C(=O)c2ccc(C)c3ccccc23)c2ccccc21 [ST-14]
T98 g cells; [6]
  EC50 (μM): inactive

## Cc1ccc(C(=O)c2c3n(c4ccccc24)CCCC3)c2ccccc12 [ST-25]
T98 g cells; Homo sapiens, T98G, 72 h
  EC50: 0.634 µM
AI receptors
  GTPγS binding: increase GTP[…]S binding

## COCCn1c(C)c(C(=O)N2CCC3(CC2)NC(=O)N(C)C3=O)c2ccccc21 [ST-8]
T98 g cells; Homo sapiens, T98G, 72 h
  EC50: 29 µM

## CC1=C(CCN2C(=O)COc3ccccc32)c2ccccc2C1C (stereo not shown) [ST-4]
T98 g cells; [6]
  EC50 (μM): inactive

## CC(=O)c1c(C)n(CCOc2ccccc2)c2ccccc12 [ST-2]
T98 g cells; Homo sapiens, T98G, 72 h
  EC50: 21 µM

## CCN1C(=O)/C(=N\NC(=O)c2cccc3ccccc23)c2ccccc21 [ST-37]
T98 g cells; Homo sapiens, T98G, 72 h
  EC50: 5.6 µM

## COc1ccc2c(c1)c(C(O)N1CCCC(c3nnc4ccccn34)C1)c(C)n2C (stereo not shown) [ST-42]
T98 g cells; [6]
  EC50 (μM): inactive

## CCn1c(C)c(C(=O)c2ccc(OC)cc2)c2ccccc21 [ST-47]
T98 g cells; Homo sapiens, T98G, 72 h
  EC50: ~20 µM

## CCOC(=O)N1CCc2c(c3cc(C(=O)c4ccc(C)c5ccccc45)ccc3n2CC)C1
T98 g cells; Homo sapiens, T98G, 72 h
  EC50: 6 µM

## Cc1nccn1CC1CCc2c(c3ccccc3n2C)C1=O (stereo not shown) [ST-3]
T98 g cells; [6]
  EC50 (μM): inactive

## Cc1ccc(C(=O)c2c(C(F)(F)F)n(CCN3CCOCC3)c3ccccc23)c2ccccc12 [ST-28]
T98 g cells; Homo sapiens, T98G, 72 h
  EC50: 2.7 µM

## CCCCCn1cc(C(=O)c2cccc3ccccc23)cc1-c1cc(C)cc(O)c1 [ST-16]
T98 g cells; [6]
  EC50 (μM): inactive

## Cc1c(C(=O)Cn2cnc3ccccc3c2=O)c2ccccc2n1C [ST-5]
T98 g cells; [6]
  EC50 (μM): inactive

## CCn1c2ccccc2c2cc(C(=O)N3CCCc4ccccc43)ccc21 [ST-53, (9-ethyl-carbazol-3-yl)(1,2,3,4-tetrahydraquinoline)methanone]
T98 g cells; [5]
  EC50: 0.516 µM

## Cc1ccc(C(=O)n2c3ccccc3c3ccccc32)c2ccccc12 [ST-64]
T98 g cells; [5]
  EC50: 1.87 µM

## Cc1ccc(C(=O)c2c(C)n(CCN3CCOCC3)c3cc(Cl)ccc23)c2ccccc12 [ST-24]
T98 g cells; Homo sapiens, T98G, 72 h
  EC50: 1.4 µM

## Cc1ccc(C(=O)c2c(C)n(CC(F)(F)F)c3ccccc23)c2ccccc12 [ST-29]
CB2
  cross-activation of human CB2 receptors (receptor internalization): engage CB2 receptors
T98 g cells; Homo sapiens, T98G, 72 h
  EC50: 1 µM
AI receptors
  GTPγS binding: increase GTP[…]S binding

## COc1ccc(C(=O)c2c(C)n(CCN3CCOCC3)c3cc(C)ccc23)cc1 [ST-19]
T98 g cells; Homo sapiens, T98G, 72 h
  EC50: 7.4 µM

## Cc1ccc(C(=O)c2c(C)n(CCN3CCOCC3)c3ccccc23)c2ccccc12 [ST-48]
Human CB1 receptors
  cross-activation of human CB1 receptors (receptor internalization): engage CB1 receptors
CB2
  cross-activation of human CB2 receptors (receptor internalization): engage CB2 receptors
T98 g cells; Homo sapiens, T98G, 72 h
  EC50: 6.7 µM

## CCCCCn1c2ccccc2c2cc(C(=O)N3CCCCC3)ccc21 [ST-32]
T98 g cells; Homo sapiens, T98G, 72 h
  EC50: 6.2 µM

## O=C(c1ccccc1)c1cn(CC(=O)N2CCOCC2)c2ccccc12 [ST-46]
T98 g cells; [6]
  EC50 (μM): inactive

## Cc1ccc(C(=O)c2c(C)n(CCN3CCOCC3)c3cnccc23)c2ccccc12 [ST-31]
T98 g cells; Homo sapiens, T98G, 72 h
  EC50: 20 µM

## Cc1c(CNN2CCOCC2)nn(C)c1C [ST-49]
T98 g cells; [6]
  EC50 (μM): inactive

## Cc1ccc(C(=O)c2c(C)n(C)c3ccccc23)c2ccccc12 [ST-10]
T98 g cells; Homo sapiens, T98G, 72 h
  EC50: 2.9 µM

## CCCCCc1cc(O)c2c(c1)OC(C)(C)[C@@H]1CCC(C)=C[C@@H]21 [THC, Δ^9-THC]
[1]
  potencies and efficacies at killing these cells: inconsistent potencies and efficacies

## CCn1c2ccccc2c2cc(C(=O)N3CCN(C)CC3)ccc21 [ST-62, (9-ethyl-carbazol-3-yl)(N-methylpiperazine)methanone]
T98 g cells; [6]
  EC50 (μM): inactive

## O=C(c1cccc2ccccc12)c1cn(CCN2CCOCC2)c2ccccc12 [ST-20]
T98 g cells; Homo sapiens, T98G, 72 h
  EC50: 23 µM

## Cc1ccc(C(=O)c2c(C)n(C3CC3)c3ccccc23)c2ccccc12 [ST-30]
T98 g cells; Homo sapiens, T98G, 72 h
  EC50: 1 µM

## CCCCCCC(C)(C)c1ccc([C@@H]2C[C@H](O)CC[C@H]2CCCO)c(O)c1 [CP55940, CP55,940]
[1]
  potencies and efficacies at killing these cells: inconsistent potencies and efficacies
[2]
  competition for WIN-2 binding: did not compete

## Cc1c(C(=O)c2cccc3ccccc23)c2ccccc2n1C [ST-12]
T98 g cells; Homo sapiens, T98G, 72 h
  EC50: 3.1 µM

## Cc1ccc(C(=O)c2c(C)n(CCN3CCOCC3)c3ncccc23)c2ccccc12 [ST-23]
Human CB1 receptors
  cross-activation of human CB1 receptors (receptor internalization): engage CB1 receptors
T98 g cells; Homo sapiens, T98G, 72 h
  EC50: 3.5 µM
AI receptors
  GTPγS binding: increase GTP[…]S binding

## COc1ccc(C(=O)c2c(C)n(CCN3CCOCC3)c3ccccc23)cc1 [ST-17]
T98 g cells; Homo sapiens, T98G, 72 h
  EC50: 24 µM

## Cc1ccc(C(=O)c2c(C)n(CCN3CCOCC3)c3ccc(Cl)cc23)c2ccccc12 [ST-22]
T98 g cells; Homo sapiens, T98G, 72 h
  EC50: 5.4 µM

## CCn1c(C)c(C(=O)c2cccc3ccccc23)c2ccccc21 [ST-13]
T98 g cells; Homo sapiens, T98G, 72 h
  EC50: 7.9 µM

## CCCn1c(C)c(C(=O)c2ccc(C)c3ccccc23)c2ccccc21 [ST-18]
T98 g cells; Homo sapiens, T98G, 72 h
  EC50: 1.9 µM

## CC(=O)c1c(C)n(CCOc2cccc3ccccc23)c2ccccc12 [ST-45]
T98 g cells; Homo sapiens, T98G, 72 h
  EC50: 30 µM

## COc1ccc2c3cc(C(=O)N4CCCCC4)ccc3n(CC3CCCCC3)c2c1 [ST-36]
T98 g cells; Homo sapiens, T98G, 72 h
  EC50: 3.7 µM

## Cc1c(C(=O)C(F)(F)F)c2ccccc2n1CC(=O)NCc1ccccc1 [ST-6]
T98 g cells; [6]
  EC50 (μM): inactive

## COc1ccc2c(c1)c(C(=O)c1ccc(C)c3ccccc13)c(C)n2CCN1CCOCC1 [ST-21]
T98 g cells; Homo sapiens, T98G, 72 h
  EC50: 29 µM

## COCCn1cc(C(=O)N2CCCC(CN(C)C)C2)c2ccccc21 (stereo not shown) [ST-9]
T98 g cells; [6]
  EC50 (μM): inactive

## Cc1c(C(=O)c2cccc3ccccc23)c2cccc3c2n1[C@@H](CN1CCOCC1)CO3 [ST-1, WIN55212-2]
[3]
  excitatory transmission: inhibit excitatory transmission
[4]
  [35S]-GTPγS binding: increase [^35S]-GTPγS binding
T98 g cells; Homo sapiens, T98G, 72 h
  EC50: 2.1 µM
[1]; Homo sapiens, range over the three cell lines (FIG. 1), read-out: potency at killing T98 g, MDA231 and sknmc cells
  EC50: 1.5 to 2.9 µM
[1]; rank order of cell lines
  toxic efficacy: T98 g>MDA>sknmc
[2]
  binding affinity: nanomolar affinity

## CC(=O)c1c(C)n(CCCOc2ccccc2)c2ccccc12 [ST-44]
T98 g cells; Homo sapiens, T98G, 72 h
  EC50: > 20 µM

## CCCCCn1c2c(c3ccc(OC)cc31)CN(C(=O)c1ccccc1)CC2 [ST-35]
T98 g cells; [5]
  EC50: ~30 µM

## 5-ethyl-7-methoxy-2-[(4-methylnaphthalen-1-yl)carbonyl]-1H,2H,3H,4H,5H-pyrido[4,3-b]indole [ST-33]
T98 g cells; T98 g cells, cell death, viability after 3 days, read-out: EC50
  EC50: 1.4 µM

## Cn1cc(C(=O)N2CCCc3ccccc32)c2ccccc21 [ST-40]
T98 g cells; [6]
  EC50 (μM): inactive

## COc1ccc2c(C(=O)c3ccc(C)c4ccccc34)c(C)n(CCN3CCOCC3)c2c1 [ST-26]
T98 g cells; Homo sapiens, T98G, 72 h
  EC50: 2.5 µM

## CCn1c2ccccc2c2cc(C(=O)c3ccc(C)c4ccccc34)ccc21 [ST-34, (9-ethyl-9H-carbazol-3-yl)(4-methylnaphthalen-1-yl)methanone]
T98 g cells; Homo sapiens, T98G, 72 h
  EC50: 0.077 µM

## CCCn1c2ccccc2c2cc(C(=O)c3ccc(C)c4ccccc34)ccc21 [ST-58, (9-propyl-carbazol-3-yl)(4-methyl-naphthyl)methanone]
T98 g cells; [6]
  EC50 (μM): inactive

## CCCn1c(C)c(C(=O)c2cccc3ccccc23)c2ccccc21 [ST-15]
T98 g cells; Homo sapiens, T98G, 72 h
  EC50: 1.5 µM

## COc1ccc2c(c1)c(C(=O)N1CCCC(c3nnc4ccccn34)C1)c(C)n2C (stereo not shown) [ST-41]
T98 g cells; [6]
  EC50 (μM): inactive

## Cc1ccc(C(=O)c2c(C)n(CCN3CCOCC3)c3cc(Cl)cc(Cl)c23)c2ccccc12 [ST-27]
T98 g cells; Homo sapiens, T98G, 72 h
  EC50: 0.409 µM

## CCn1c2c(c3ccccc31)CN(S(=O)(=O)c1ccc(Cl)c3nonc13)CC2 [ST-59]
T98 g cells; [6]
  EC50 (μM): inactive

## O=C1CCCc2c1c1ccccc1n2Cc1ccccc1 [ST-7]
T98 g cells; [6]
  EC50 (μM): inactive
